In patent publication US12409169B2, “Composition comprising clay mineral complex for prevention, alleviation, and treatment of inflammatory bowel disease, preparation method for composition, and method for alleviation and treatment for inflammatory bowel disease” (Korea Institute Of Geoscience And Mineral Resources, priority 2019, dated 2025):
Where “and” joins values, the source holds several entries; their conditions need not be identical. Identical values can stand only once. Like-named read-outs stand apart in the source and are kept apart here.

Key:
[1] = pharmacokinetic analysis after oral administration in SD rats; type: in vivo; settings: 10 mg/kg based on vactosertib
Experimental: In order to confirm a change in plasma concentration in actual oral administration of the bentonite/vactosertib complex, a pharmacokinetic analysis test was performed using SD rats of about 7 weeks of age. The existing vactosertib powder, an aqueous solution dissolved with the vactosertib powder in a pH 3 buffer solution, and the bentonite/vactosertib complex were used as samples and a dose was set to 10 mg/kg based on the drug (that is, vactosertib) amount. Each sample was orally administered in rats and then the blood was collected by time, and preprocessed to analyze a plasma drug concentration.

[2] = elution test (drug release through semi-permeable membrane); type: physicochemical
Experimental: An elution test of vactosertib was performed to confirm a change in which the vactosertib was adsorbed onto bentonite and then released. At this time, in order to predict the drug release from the upper digestive tract and the lower digestive tract, the elution was performed under different pH conditions. To this end, the test was performed by using a 0.1 N HCl solution (pH 1.2), a 50 mM acetate buffer solution (pH 4.5), and a 50 mM phosphate buffer solution (pH 7.4) as eluates, respectively. At this time, in all the eluates, Tween80 was dissolved and used at a concentration of 0.1% to impart a sufficient elution environment of vactosertib. The vactosertib powder and the bentonite/vactosertib complex were formed to a dispersion to be 1 mg/mL based on the vactosertib concentration and 0.3 mL thereof was sealed in a semi-permeable membrane and then put in 30 mL of each eluate to perform the elution. Thereafter, each eluate was collected by 0.2 mL for each predetermined time, a drug concentration was analyzed to compare elution rates.

[3] = adsorption rate of vactosertib onto bentonite; type: physicochemical; settings: vactosertib 0.4 mg/ml, bentonite 0.5 mg/mL, pH 1
Experimental: The adsorption rates of vactosertib and bentonite according to the pH of a solvent were evaluated. At this time, considering that the vactosertib was not dissolved in neutral, but stated to be dissolved in about 1 mg/mL from pH 3, a test was performed by setting a reaction pH to pH 1, pH 2, and pH 3. First, 10 mg/mL of the vactosertib was dissolved in a 0.1 N hydrochloric acid aqueous solution and diluted with a hydrochloric acid aqueous solution or a phosphate buffer solution (pH 1: 0.1 N hydrochloric acid aqueous solution, pH 2, pH 3: phosphate buffer solution) corresponding to each pH to adjust the concentration to 1 mg/mL. […] Thereafter, a drug concentration of a supernatant obtained by centrifugation (3,000 rpm, 5 minutes) was analyzed. Through this, the drug amount adsorbed onto the bentonite was indirectly calculated as shown in Equation 1 by removing the remaining drug amount in the supernatant from the entirely applied drug (vactosertib) to calculate an adsorption rate. […] In addition, a difference in adsorption rate according to the concentration of vactosertib was measured. […] In addition, a difference in adsorption rate according to an absolute concentration was measured.

[4] = tested on: ulcerative colitis mouse model induced with DSS; assay: histopathological severity scores in ulcerative colitis mouse model induced with DSS; type: in vivo, C57BL/6 mice; settings: DSS mice, Dunn's test
Experimental: Animal tests were performed to confirm anti-inflammatory, anti-crypt cell damage, anti-ulcer, anti-edema, and anti-fibrosis effects of a vactosertib/bentonite complex using a mouse model of ulcerative colitis as one of inflammatory bowel diseases. C57BL/6 mice were selected as test animals, and in order to induce ulcerative colitis, a cycle in which an inflammation inducing substance, DSS was added in drinking water and supplied for 7 days, and then normal drinking water was supplied for 14 days was repeated. Such an inflammation inducing cycle was repeated 3 times to induce chronic inflammation, ulcer and fibrous conditions in the large intestine. To test animal groups except for control groups, from 3 weeks after a first inflammation inducing cycle was elapsed, bentonite, vactosertib, or a vactosertib/bentonite complex was administered twice a day (10 am, 4 pm), 5 days a week, and for total 6 weeks. The bentonite per 1 kg of converted mouse weight was administered with 106.8 mg, the vactosertib was administered with 20.0 mg, and the complex was administered with 126.8 mg. At this time, as the vactosertib/bentonite complex, the complex prepared in Test Example 5 was used. For each test group used in ulcerative colitis animal tests, inflammation inducing substances, test substances, doses of the test substances, and the number of test animals were shown in Table 7 below.
C57BL/6 mice used in the test were supplied from the Orient Bio Gapyeong Center (699-13, Mokdong-ri, Buk-yeon, Gapyeong-gun, Gyeonggi-do), and about 6-week-old during obtaining. For about 7 days after obtaining, the rats were quarantined and purified and then healthy animals were used for the test. When the induced material was administered, the test animals were about 8-week-old, and 52 mice were used. The test animals were bred in the 2nd floor of Clean Animal Room, Bioscience Research Institute, Research Institute of Medical Science at Inha University, and circulated in at least 10 times/hour and bred under conditions of a temperature of 22-4° C., relative humidity of 50±20%, and illuminance of 150 to 300 Lux of lighting on for 12 hours (lighting: 08:00 to 20:00). A radiation solid feed (FeedLab GMO Free Rodent Diet GF2005) for rodents was free-taken using a feeder and water sterilized by an ultraviolet-ray flowing water sterilizer and high-pressure vapor after reverse osmosis was free-taken using a polysulfonate-made drinking water bottle (300 ml).
In order to induce ulcerative colitis, 2% DSS was added in drinking water of mice and continuously supplied for first 7 days of every test cycle (3 weeks). The test substances were orally administered 2 times a day, 5 days a week, and for a total of 6 weeks at the same time of second DSS induction (FIG. 14). […]
In order to evaluate a treatment effect of test substances on ulcerative colitis, after the end of the test, the animal was anesthetized, opened, and bled and then a histopathological test was performed for each individual. Histopathological findings were subdivided and scored into severity changes of inflammation, crypt cell damage, ulcer, edema, and fibrosis as shown in Table 8 below. […]
Statistical analysis was performed using Graphpad Prism version 8.01, and a minimum unit of significance was set to p<0.05. Since all measured histopathological indexes were nonparametric data, the indexes were represented by a median, 25% to 75% values (in the box), and minimum-maximum values (both ends) in the graph (FIGS. 15 to 20). […]

interleukin 6 (IL-6) = assay: immunohistochemical IL-6 staining of large intestine tissue in DSS ulcerative colitis mouse model; type: in vivo, C57BL/6 mice; settings: DSS 2% mice
Experimental: Animal tests were performed to confirm anti-inflammatory, anti-crypt cell damage, anti-ulcer, anti-edema, and anti-fibrosis effects of a vactosertib/bentonite complex using a mouse model of ulcerative colitis as one of inflammatory bowel diseases. C57BL/6 mice were selected as test animals, and in order to induce ulcerative colitis, a cycle in which an inflammation inducing substance, DSS was added in drinking water and supplied for 7 days, and then normal drinking water was supplied for 14 days was repeated. Such an inflammation inducing cycle was repeated 3 times to induce chronic inflammation, ulcer and fibrous conditions in the large intestine. […]
In order to observe an immunohistochemical change of a large intestine tissue, a tissue fixed to a 10% neutral buffer formalin solution was sliced, attached to a coating slide, and deparaffinized, and then stained, and IHC of reacting with antibodies IL-6 (Interleukin-6), α-SMA ((α-smooth muscle actin), and TGF-β (transforming growth factor beta) on each slide was requested to an external institute (Notus) and the test was performed. In an individual-specific tissue slide, three constant zones were specified and imaged 100 times, a stained portion to the total area was measured, and a mean value was calculated (Zen 2.3 blue edition, Carl Zeiss, Germany). […]

AUCinf [1] [µg·min/mL] | AUClast [1] [µg·min/mL] | Cmax [1] [ng/mL] | Tmax [1] [min] | Tmax ([1]; listed as vactosertib aqueous solution) | half-life ([1]; SD, rat, plasma, po, 10 mg/kg) [min] | Cmax ([1]; SD, rat, plasma, po, 10 mg/kg, read-out: maximum plasma concentration Cmax) [ng/mL] | elution rate ([2]; 0.1 N HCl solution (pH 1.2), 0.1% Tween80) | elution rate ([2]; at a higher pH than pH 1.2) | t1/2 [1] [min] | Adsorption rate [3] [%] | SMILES | median of inflammation index compared with positive control group (G2) ([4]; FIG. 15) | median of crypt cell damage index compared with positive control group (G2) ([4]; FIG. 16) | median of ulcer index compared with positive control group (G2) ([4]; FIG. 17) | median of fibrosis index compared with positive control group (G2) ([4]; FIG. 19) | median of summed severity scores (except fibrosis) compared with positive control group (G2) ([4]; FIG. 20) | reduction of IL-6 staining area as compared with G2 group (interleukin 6 (IL-6)) [%]
111.97 ± 33.28 | 111.73 ± 33.05 | 2770 ± 550 | 15 ± 0 | 15 min and 15 ± 0 min | 45.9 ± 6.84 | 2770 ± 550 |  |  |  |  | Cc1cccc(-c2[nH]c(CNc3ccccc3F)nc2-c2ccc3ncnn3c2)n1 [Vactosertib aqueaous solution] |  |  |  |  |  | 
45.46 ± 27.67 | 44.65 ± 28.60 | 610 ± 570 | 67.5 ± 75 |  |  |  | rapidly eluted | significantly decreased | 51.96 ± 21.93 |  | Cc1cccc(-c2[nH]c(CNc3ccccc3F)nc2-c2ccc3ncnn3c2)n1 [Vactosertib powder] |  |  |  |  |  | 
 |  |  |  |  |  |  |  |  |  | 28.0 ± 0.8 | Cc1cccc(-c2[nH]c(CNc3ccccc3F)nc2-c2ccc3ncnn3c2)n1 [vactosertib, N-((4-([1,2,4]triazolo[1,5-a]pyridine-6-yl)-5-(6-methylpyridin-2-yl)-1H-imidazol-2-yl)methy 1)-2-fluoroaniline] | slightly low | low in a median of a crypt cell damage index, but had no statistical significance | low in a median of an ulcer index, but had no statistical significance | slightly low | low in a median of an ulcer index, but had no statistical significance | 23.0
